# Reference: patent US20050033021A1, “Chimeric Gatiphal 15 variants and their use in the analysis and discovery of modulators of G-protein coupled receptors” (priority 2003, published 2005)
# Target: T1, rat T1 R1/T1 R3 umami taste receptor (Rattus norvegicus, UniProt Q923K1+Q9Z0R8)
# T1 construct: expressed in transfected cells; host or cells: HEK-293, transient transfection, pEAK10 expression vector
# T1 sequence (Q9Z0R8 20-840): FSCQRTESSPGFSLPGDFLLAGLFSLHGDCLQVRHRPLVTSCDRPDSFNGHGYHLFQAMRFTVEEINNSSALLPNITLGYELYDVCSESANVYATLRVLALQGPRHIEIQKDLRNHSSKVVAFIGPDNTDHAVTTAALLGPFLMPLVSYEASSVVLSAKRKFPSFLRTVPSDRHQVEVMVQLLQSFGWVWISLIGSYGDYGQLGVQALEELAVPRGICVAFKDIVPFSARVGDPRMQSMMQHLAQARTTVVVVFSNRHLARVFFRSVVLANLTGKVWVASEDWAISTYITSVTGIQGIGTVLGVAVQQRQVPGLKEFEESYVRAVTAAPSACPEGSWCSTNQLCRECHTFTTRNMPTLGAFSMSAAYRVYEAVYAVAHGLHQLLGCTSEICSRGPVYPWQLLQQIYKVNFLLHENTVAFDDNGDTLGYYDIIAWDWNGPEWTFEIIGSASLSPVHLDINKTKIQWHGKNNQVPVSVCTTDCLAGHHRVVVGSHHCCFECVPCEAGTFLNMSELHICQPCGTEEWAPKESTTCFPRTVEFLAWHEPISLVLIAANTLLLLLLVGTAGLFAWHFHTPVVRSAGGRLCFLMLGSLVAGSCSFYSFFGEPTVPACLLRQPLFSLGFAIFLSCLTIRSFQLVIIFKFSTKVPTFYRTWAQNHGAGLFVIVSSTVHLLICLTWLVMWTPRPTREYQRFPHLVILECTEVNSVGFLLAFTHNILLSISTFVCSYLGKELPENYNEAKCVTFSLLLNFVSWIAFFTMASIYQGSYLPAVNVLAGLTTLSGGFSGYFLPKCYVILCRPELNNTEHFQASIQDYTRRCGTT
# T1 sequence (Q923K1 21-858): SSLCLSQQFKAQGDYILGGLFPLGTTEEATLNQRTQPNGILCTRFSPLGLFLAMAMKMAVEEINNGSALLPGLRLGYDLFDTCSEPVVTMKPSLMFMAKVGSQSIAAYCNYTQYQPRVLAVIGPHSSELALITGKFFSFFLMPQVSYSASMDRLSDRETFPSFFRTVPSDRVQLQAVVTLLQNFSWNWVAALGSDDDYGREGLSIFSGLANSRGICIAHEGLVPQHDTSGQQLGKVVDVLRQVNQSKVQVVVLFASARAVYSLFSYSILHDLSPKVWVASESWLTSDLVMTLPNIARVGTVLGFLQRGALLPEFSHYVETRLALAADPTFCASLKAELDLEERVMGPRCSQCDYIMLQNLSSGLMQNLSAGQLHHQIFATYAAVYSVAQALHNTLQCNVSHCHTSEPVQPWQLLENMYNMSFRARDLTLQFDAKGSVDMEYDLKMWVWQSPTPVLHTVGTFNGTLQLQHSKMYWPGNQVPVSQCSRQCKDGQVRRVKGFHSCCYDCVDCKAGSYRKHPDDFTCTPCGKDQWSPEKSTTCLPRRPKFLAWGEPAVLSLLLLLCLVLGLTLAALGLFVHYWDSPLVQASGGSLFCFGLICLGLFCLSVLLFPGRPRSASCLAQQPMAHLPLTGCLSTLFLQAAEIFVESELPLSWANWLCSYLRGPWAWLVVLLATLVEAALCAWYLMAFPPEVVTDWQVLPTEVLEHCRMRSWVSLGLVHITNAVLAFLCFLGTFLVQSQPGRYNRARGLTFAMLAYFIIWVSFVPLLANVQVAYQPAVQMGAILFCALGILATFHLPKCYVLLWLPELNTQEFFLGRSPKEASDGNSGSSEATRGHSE
# Experiment: Calcium imaging of HEK-293 cells transiently transfected with rat T1R1, T1R3 and Ga15 or Ga15/i1
# Assay type: cell-based
# Details: HEK-293 with rat T1R1, T1R3 and Ga15/i1; in the presence of 2.5 mM IMP
# Excerpt: Rat T1 R2 and T1 R3 expression constructs were generated using the pEAK10 expression vector (Edge Biosystems). (Rat T1 R1, T1 R2, and T1 R3 nucleic acid sequences are described in U.S. Provisional Application No. 60/339,472, incorporated by reference in its entirety herein). […] Calcium mobilization was monitored on an Axiovert S100 microscope equipped with an inverted 10X/0.5 LWID piano fluor objective (Zeiss) and a cooled CCID camera (Princeton Instruments). Fluorescence images were acquired at 480 nrn excitation and 535 nm emission, and analyzed with Imaging Workbench 4.0 software (Axon Instruments). T1 R receptor activity was quantitated by counting the number of responding cells 30 seconds after stimulus addition. […]
row,Compound,cell response (intracellular calcium) to umami taste stimuli
1,N[C@@H](CCC(=O)O)C(=O)O [L-glutamate],responded
2,N[C@@H](CC(=O)O)C(=O)O [L-aspartate],responded
